The source of these data is patent publication US9743666B2, “Herbicidal composition comprising flazasulfuron and an inhibitor of protoporphyrinogen oxidase” (ISHIHARA SANGYO KAISHA, LTD., priority 2011, dated 2017).

One may read the inhibition as the drop in the measured response relative to a control, in per cent.

Where two headings read alike, the source gives them in different places. Bounds are passed on as bounds.

The subject of assay [1] is shattercane (Sorghum bicolor (L.) Moench). Nature of the assay: Test Example 20: pot test, soil treatment of shattercane. The format is in vivo. The settings on record: 14th day after treatment, read-out: Growth inhibition rate (%) of shattercane, Measured value.
Assay [2] deals with wild oat (Avena fatua L.). Nature of the assay: Test Example 5: pot test, soil treatment of wild oat, 13th day. The format is in vivo. The settings on record: soil treatment one day after sowing, 13th day after treatment; for inhibition at 25 g/ha / inhibition at 50 g/ha: Avena fatua, 24 h, read-out: Growth inhibition rate (%) of wild oat, Measured value.
The test system of assay [3] is velvetleaf (Abutilon theophrasti Medic.). Nature of the assay: Test Example 8: pot test, soil treatment of velvetleaf. The class given is in vivo. Particulars: 28th day after treatment, read-out: Growth inhibition rate (%) of velvetleaf, Measured value.
In assay [4] the test system is wild oat (Avena fatua L.). Nature of the assay: Test Example 16: pot test, soil treatment of wild oat, 28th day. The format is in vivo.
The subject of assay [5] is sunn-hemp (Crotalaria juncea L.). Kind of assay: Test Example 15: pot test, soil treatment of sunn-hemp. The class given is in vivo. The settings on record: 28th day after treatment.
Assay [6] has as its system rostrate sesbania (Sesbania rostrata Bremek. & Oberm.). Kind of assay: Test Example 14: pot test, soil treatment of rostrate sesbania, 14th day. The class given is in vivo. The settings on record: 14th day after treatment.
The subject of assay [7] is sunn-hemp (Crotalaria juncea L.). Nature of the assay: Test Example 7: pot test, soil treatment of sunn-hemp. The class given is in vivo.
Assay [8] has as its system rostrate sesbania (Sesbania rostrata Bremek. & Oberm.). Kind of assay: Test Example 6: pot test, soil treatment of rostrate sesbania, 28th day. The class given is in vivo. The settings on record: 28th day after treatment.
In assay [9] the test system is bermudagrass (Cynodon dactylon (L.) Pers.). Nature of the assay: Test Example 10: pot test, foliar treatment of bermudagrass, 2.2 to 2.5 leaf-stage. Particulars: read-out: Growth inhibition rate (%) of bermudagrass, Measured value. The format is in vivo.
The test system of a further assay is corn (Zea mays L.). Nature of the assay: Test Example 18: pot test, soil treatment of corn. The format is in vivo. The settings on record: 14th day after treatment, read-out: Growth inhibition rate (%) of corn, Measured value.
For assay [10], the system named is ivy-leaved morningglory (Ipomoea hederacea Jacq.). Nature of the assay: Test Example 19: pot test, soil treatment of ivy-leaved morningglory. The class given is in vivo. The settings on record: 14th day after treatment, read-out: Growth inhibition rate (%) of ivy-leaved morningglory, Measured value.
In assay [11] the test system is persian speedwell (Veronica persica Poir.). Kind of assay: Test Example 12: pot test, foliar treatment of persian speedwell, 4.0 to 4.3 leaf-stage. The class given is in vivo. The settings on record: read-out: Growth inhibition rate (%) of persian speedwell, Measured value.
Assay [12] relates to japanese millet (Echinochloa esculenta (A. Braun) H. Scholz.). Kind of assay: Test Example 13: pot test, soil treatment of japanese millet. The format is in vivo.
Assay [13] deals with wild oat (Avena fatua L.). Kind of assay: Test Example 17: pot test, soil treatment of wild oat, 14th day. The settings on record: 14th day after treatment, read-out: Growth inhibition rate (%) of wild oat, Measured value. The format is in vivo.
Assay [14] concerns sticky chickweed (Cerastium glomeratum Thuill.). Kind of assay: Test Example 3: pot test, foliar treatment of sticky chickweed. The settings on record: read-out: Growth inhibition rate (%) of sticky chickweed, Measured value. The class given is in vivo.
Assay [15] has as its system bermudagrass (Cynodon dactylon (L.) Pers.). Kind of assay: Test Example 11: pot test, foliar treatment of bermudagrass, 3.8 to 4.3 leaf-stage. The settings on record: read-out: Growth inhibition rate (%) of bermudagrass, Measured value. The format is in vivo.
In assay [16] the test system is black nightshade (Solanum nigrum L.). Kind of assay: Test Example 9: pot test, soil treatment of black nightshade. The class given is in vivo. The settings on record: 28th day after treatment, read-out: Growth inhibition rate (%) of black nightshade, Measured value.
For assay [17] the test system is unchanged. Nature of the assay: Test Example 2: pot test, foliar treatment of black nightshade. The class given is in vivo.
In assay [18] the test system is persian speedwell (Veronica persica Poir.). Nature of the assay: Test Example 1: pot test, foliar treatment of persian speedwell. The class given is in vivo. Particulars: read-out: Growth inhibition rate (%) of persian speedwell, Measured value.
The subject of assay [19] is common lambsquarters (Chenopodium album L.). Nature of the assay: Test Example 4: pot test, foliar treatment of common lambsquarters. The settings on record: read-out: Growth inhibition rate (%) of lambsquarters, Measured value.
[20] abbreviates: dose 50 g/ha, 2.2 to 2.5 leaf-stage, 28th day after treatment.
The mark [21] stands for this setting: Crotalaria juncea, soil, read-out: Growth inhibition rate (%) of sunn-hemp, Measured value.

As to `CC(C)N(C)S(=O)(=O)NC(=O)c1cc(-n2c(=O)cc(C(F)(F)F)n(C)c2=O)c(F)cc1Cl` [Saflufenacil, saflufenacil], the inhibition at 100 g/ha in assay [1] (dose 100 g/ha) is 20%. In assay [2], the inhibition at 25 g/ha came to 15%. In addition, the inhibition at 50 g/ha in assay [2] (dose 50 g/ha) was 5%; in assay [4] (Avena fatua, dose 50 g/ha, soil treatment, 28th day after treatment, read-out: Growth inhibition rate (%) of wild oat, Measured value) it was 0%. In addition, the inhibition at 5 g/ha in assay [3] (dose 5 g/ha) was determined as 0%. In addition, in [3] (dose 10 g/ha), the inhibition at 10 g/ha stood at 65%.
As for `CCOC(=O)COc1cc(-n2ncc(C(F)(F)F)c(C)c2=O)c(F)cc1Cl` [Flufenpyr-ethyl, flufenpyr-ethyl], the “Growth inhibition rate (%) of sunn-hemp, Measured value” in assay [5] (dose 50 g/ha) was 0%. Moreover, the “Growth inhibition rate (%) of rostrate sesbania, Measured value” in assay [6] (dose 5 g/ha) came to 0%.
As for oxadiargyl, the “Growth inhibition rate (%) of sunn-hemp, Measured value” in assay [7] (dose 400 g/ha, soil treatment, 28th day after treatment) came to 40%. In addition, in [8] (dose 400 g/ha), the “Growth inhibition rate (%) of rostrate sesbania, Measured value” came out at 20%. In addition, the “Growth inhibition rate (%) of wild oat, Measured value” in assay [2] (dose 50 g/ha) worked out at 5%; in assay [2] (dose 800 g/ha) it was 20%.
`COC(=O)CSc1cc(/N=c2\sc(=O)n3n2CCCC3)c(F)cc1Cl` [Fluthiacet-methyl, fluthiacet-methyl]: the inhibition at 50 g/ha in assay [5] (Crotalaria juncea, dose 50 g/ha, read-out: Growth inhibition rate (%) of sunn-hemp, Measured value) was found to be 0%. In [6] (Sesbania, dose 5 g/ha, read-out: Growth inhibition rate (%) of rostrate sesbania, Measured value), the inhibition at 5 g/ha was 0%.
As to `Cc1nn(-c2cc(NS(C)(=O)=O)c(Cl)cc2Cl)c(=O)n1C(F)F` [Sulfentrazone, sulfentrazone], the inhibition at 500 g/ha in assay [5] (Crotalaria juncea, dose 500 g/ha, read-out: Growth inhibition rate (%) of sunn-hemp, Measured value) came to 30%. Besides, the inhibition at 50 g/ha in assay [9] (setting [20]) worked out at 30%. The inhibition at 25 g/ha in [3] (dose 25 g/ha) stood at 20%.
Take `COc1cc(OC)nc(NC(=O)NS(=O)(=O)c2ncccc2C(F)(F)F)n1` [Flazasulfuron, 1-(4,6-dimethoxypyrimidin-2-yl)-3-(3-trifluoromethyl-2-pyridylsulfonyl)urea]: the inhibition at 25 g/ha was 0% in [5] (Crotalaria juncea, dose 25 g/ha, read-out: Growth inhibition rate (%) of sunn-hemp, Measured value); 0% in [11] (dose 25 g/ha, 4.0 to 4.3 leaf-stage, 28th day after treatment); 30% in [13] (dose 25 g/ha); 10% in assay [18] (dose 25 g/ha, 7 to 8 leaf-stage, 21st day after treatment); 40% in assay [2]; 75% in assay [4] (Avena fatua, dose 25 g/ha, soil treatment, 28th day after treatment, read-out: Growth inhibition rate (%) of wild oat, Measured value). The inhibition at 12.5 g/ha is 70% in the assay on corn (Zea mays L.) (dose 12.5 g/ha); 15% in assay [15] (dose 12.5 g/ha, 3.8 to 4.3 leaf-stage, 28th day after treatment); 0% in assay [1] (dose 12.5 g/ha); 25% in assay [8] (Sesbania, dose 12.5 g/ha, read-out: Growth inhibition rate (%) of rostrate sesbania, Measured value); 20% in [4] (Avena fatua, dose 12.5 g/ha, soil treatment, 28th day after treatment, read-out: Growth inhibition rate (%) of wild oat, Measured value). For the same compound, the inhibition at 50 g/ha came to 60% in assay [10] (dose 50 g/ha); 80% in assay [12] (Echinochloa esculenta, dose 50 g/ha, soil treatment, 14th day after treatment, read-out: Growth inhibition rate (%) of japanese millet, Measured value); 55% in assay [7] (Crotalaria juncea, dose 50 g/ha, soil treatment, 28th day after treatment, read-out: Growth inhibition rate (%) of sunn-hemp, Measured value); 85% in assay [16] (dose 50 g/ha); 74% in assay [17] (Solanum nigrum, dose 50 g/ha, 3.2 to 3.5 leaf-stage, 21st day after treatment, read-out: Growth inhibition rate (%) of black nightshade, Measured value); 50% in [6] (Sesbania, dose 50 g/ha, read-out: Growth inhibition rate (%) of rostrate sesbania, Measured value). For the same compound, the inhibition at 50 g/ha in assay [2] (dose 50 g/ha) was 70%; in [9] (setting [20]), 75%; in [3] (dose 50 g/ha), 88%. The inhibition at 6.3 g/ha in assay [14] (dose 6.3 g/ha, 3.3 to 4.0 leaf-stage, 21st day after treatment) turned out to be 92%. The “dose required to completely suppress growth of black nightshade” value in assay [17] (flazasulfuron alone) is recorded as not below 50 g/ha. Moreover, the inhibition at 1.6 g/ha in assay [19] worked out at 3%. The inhibition at 100 g/ha came out at 75% in assay [9] (dose 100 g/ha, 2.2 to 2.5 leaf-stage, 28th day after treatment) and 88% in assay [3] (dose 100 g/ha).
For `CCOC(=O)C(Cl)Cc1cc(-n2nc(C)n(C(F)F)c2=O)c(F)cc1Cl` (stereo not drawn) [Carfentrazone-ethyl, carfentrazone-ethyl], the inhibition at 25 g/ha in assay [11] is 65%. The inhibition at 27.4 g/ha in assay [19] was determined as 92%. Further, in assay [9], the inhibition at 20 g/ha amounted to 0% and the inhibition at 50 g/ha is 0%.
Take `C#CCN(C)c1c(C#N)cnn1-c1nn2c(c1Cl)CCCC2` [Pyraclonil, pyraclonil]: the “Growth inhibition rate (%) of japanese millet, Measured value” in [12] (dose 100 g/ha, soil treatment, 14th day after treatment) came out at 30%. Also, the “Growth inhibition rate (%) of wild oat, Measured value” in assay [4] (dose 250 g/ha, soil treatment, 28th day after treatment) stood at 40%.
`CCOC(=O)COc1cc(-c2nn(C)c(OC(F)F)c2Cl)c(F)cc1Cl` [Pyraflufen-ethyl, pyraflufen-ethyl]: the inhibition at 80 g/ha in assay [11] stood at 80%. Further, the inhibition at 10 g/ha in [14] came out at 58%; in assay [7] (setting [21]), 20%; in assay [18], 43%. Besides, the inhibition at 40 g/ha in assay [15] came out at 0%. Also, the inhibition at 50 g/ha in assay [7] (setting [21]) was 45%. Moreover, in [17] (Solanum nigrum, read-out: Growth inhibition rate (%) of black nightshade, Measured value), the inhibition at 2.5 g/ha is 88%.
Take `CC(C)=C1OC(=O)N(c2cc(OC3CCCC3)c(Cl)cc2F)C1=O` [Pentoxazone, pentoxazone]: the inhibition at 100 g/ha in assay [12] (Echinochloa esculenta, soil, read-out: Growth inhibition rate (%) of japanese millet, Measured value) stood at 0%. For the same compound, the inhibition at 250 g/ha in assay [4] (Avena fatua, soil, read-out: Growth inhibition rate (%) of wild oat, Measured value) came out at 0%.
In the case of `C#CCN1C(=O)COc2cc(F)c(N3C(=O)C4=C(CCCC4)C3=O)cc21` [Flumioxazin, flumioxazin], the inhibition at 100 g/ha in assay [5] (Crotalaria juncea, dose 100 g/ha, read-out: Growth inhibition rate (%) of sunn-hemp, Measured value) came out at 0%. Further, the inhibition at 500 g/ha in assay [13] (dose 500 g/ha) was found to be 75%. In addition, in [16] (dose 2.5 g/ha), the inhibition at 2.5 g/ha came to 0%. Further, the inhibition at 200 g/ha in assay [6] (Sesbania, dose 200 g/ha, read-out: Growth inhibition rate (%) of rostrate sesbania, Measured value) was found to be 75%. Moreover, the inhibition at 250 g/ha is 70% in [8] (Sesbania, dose 250 g/ha, read-out: Growth inhibition rate (%) of rostrate sesbania, Measured value) and 90% in assay [4] (Avena fatua, dose 250 g/ha, soil treatment, 28th day after treatment, read-out: Growth inhibition rate (%) of wild oat, Measured value). For the same compound, the inhibition at 5 g/ha in assay [9] (dose 5 g/ha, 2.2 to 2.5 leaf-stage, 28th day after treatment) is 20%.
Regarding `C=CCOC(=O)C(C)(C)OC(=O)c1cc(-n2c(=O)cc(C(F)(F)F)n(C)c2=O)ccc1Cl` [Butafenacil, butafenacil], the inhibition at 100 g/ha in the assay on corn (Zea mays L.) (dose 100 g/ha) stood at 20%. For the same compound, in assay [10] (dose 10 g/ha), the inhibition at 10 g/ha was found to be 0%.
